Where two headings read alike, the source gives them in different places.
Target: CRBN-DDB1 (Homo sapiens, UniProt Q96SW2)
Assay: HTRF binding of compounds to CRBN
Protocol: Compound activity was monitored in a Homogenous Time-Resolved Fluorescence (HTRF) assay using 1-[5-({2-[2-(2-{[2-(2,6-dioxopiperidin-3-yl)-1,3-dioxo-2,3-dihydro-1H-isoindol-4-yl]oxy}acetamido)ethoxy]ethyl}carbamoyl)pentyl]-3,3-dimethyl-2-[(1E,3E)-5-[(2E)-1,3,3-trimethyl-5-sulfo-2,3-dihydro-1H-indol-2-ylidene]penta-1,3-dien-1-yl]-3H-indol-1-ium-5-sulfonate as a fluorescent probe. […] Compounds were stored in dry, ambient temperatures at 10 mM. A 10-point, 1:3 dilution series was prepared from 10 mM stock concentrations in Echo-compatible LDV plates. 10 nL of each compound dilution series was dispensed into assays wells using an Echo 650 (Labcyte inc. USA). […] The assay was then allowed to incubate for 30 min at ambient temperature after transferring compound. […] Analysis and IC50 values were derived using KNIME analytics (KNIME Zurich) transformation and fitting within Collaborative Drug Discovery (Collaborative Drug Discovery USA). Ki was derived from the geometric mean of the IC50 values using the Cheng-Prustoff transformation.

[1] = read-out: HTRF Class (Cereblon binding, HTRF IC50)

CRBN-DDB1, sequence (Q96SW2 whole entry): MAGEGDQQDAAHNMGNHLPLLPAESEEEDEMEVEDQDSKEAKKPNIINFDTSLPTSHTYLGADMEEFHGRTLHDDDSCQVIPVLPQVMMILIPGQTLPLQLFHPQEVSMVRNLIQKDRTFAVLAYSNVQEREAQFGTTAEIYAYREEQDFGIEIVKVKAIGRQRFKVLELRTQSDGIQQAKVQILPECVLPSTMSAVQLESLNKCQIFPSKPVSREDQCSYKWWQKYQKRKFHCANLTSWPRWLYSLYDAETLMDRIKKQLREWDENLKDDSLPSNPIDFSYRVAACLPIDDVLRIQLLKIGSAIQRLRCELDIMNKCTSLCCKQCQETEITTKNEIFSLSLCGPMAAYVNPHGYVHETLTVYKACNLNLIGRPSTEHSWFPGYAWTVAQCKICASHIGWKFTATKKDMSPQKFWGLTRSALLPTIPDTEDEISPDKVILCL
CRBN-DDB1, sequence (Q16531 whole entry partner): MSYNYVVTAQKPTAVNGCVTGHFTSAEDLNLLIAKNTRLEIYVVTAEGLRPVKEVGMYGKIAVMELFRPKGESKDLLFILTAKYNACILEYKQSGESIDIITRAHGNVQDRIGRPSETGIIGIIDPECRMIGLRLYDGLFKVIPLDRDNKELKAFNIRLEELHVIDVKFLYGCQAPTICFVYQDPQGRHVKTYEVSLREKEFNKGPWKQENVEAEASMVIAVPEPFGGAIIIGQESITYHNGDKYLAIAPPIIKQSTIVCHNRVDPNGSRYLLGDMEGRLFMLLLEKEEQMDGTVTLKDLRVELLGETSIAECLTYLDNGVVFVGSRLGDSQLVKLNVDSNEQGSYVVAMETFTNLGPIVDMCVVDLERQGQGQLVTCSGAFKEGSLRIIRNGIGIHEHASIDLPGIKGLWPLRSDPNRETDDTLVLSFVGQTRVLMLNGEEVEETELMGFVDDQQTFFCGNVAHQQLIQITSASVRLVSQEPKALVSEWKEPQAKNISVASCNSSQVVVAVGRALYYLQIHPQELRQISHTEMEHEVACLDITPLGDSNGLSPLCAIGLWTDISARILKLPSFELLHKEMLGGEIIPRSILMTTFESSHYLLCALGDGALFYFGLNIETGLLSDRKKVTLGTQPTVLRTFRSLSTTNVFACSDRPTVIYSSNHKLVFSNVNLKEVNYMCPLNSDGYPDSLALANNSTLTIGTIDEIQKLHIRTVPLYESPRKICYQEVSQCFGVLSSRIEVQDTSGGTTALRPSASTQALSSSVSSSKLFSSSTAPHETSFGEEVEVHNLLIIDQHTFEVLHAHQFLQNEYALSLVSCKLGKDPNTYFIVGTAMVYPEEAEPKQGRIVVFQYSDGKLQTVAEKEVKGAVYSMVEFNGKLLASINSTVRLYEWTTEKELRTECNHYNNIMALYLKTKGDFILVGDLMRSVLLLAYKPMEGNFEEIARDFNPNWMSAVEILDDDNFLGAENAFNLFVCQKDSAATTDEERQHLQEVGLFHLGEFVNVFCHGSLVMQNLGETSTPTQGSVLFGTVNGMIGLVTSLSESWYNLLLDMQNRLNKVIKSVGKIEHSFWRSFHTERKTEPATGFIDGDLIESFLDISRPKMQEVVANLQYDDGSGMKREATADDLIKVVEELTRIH

Row | SMILES | IC50 [1] | IC50
1 | CC(C)(O)c1ccc(NC(=O)OCc2ccc3c(c2)C(=O)N(C2CCC(=O)NC2=O)C3)cn1 (centres unmarked) [Compound 199, (2-(2,6-dioxopiperidin-3-yl)-3-oxoisoindolin-5-yl)methyl (6-(2-hydroxypropan-2-yl)pyridin-3-yl)carbamate] | 100 to 1000 nM | –
2 | O=C1CCC(N2Cc3ccc(COC(=O)Nc4ccc(C(O)C(F)(F)F)nc4)cc3C2=O)C(=O)N1 (centres unmarked) [Compound 238] | – | 100 to 1000 nM
3 | Cc1cc(NC(=O)OCc2ccc3c(c2)C(=O)N(C2CCC(=O)NC2=O)C3)ncc1N1CCCC1 (centres unmarked) [Compound 194, (2-(2,6-dioxopiperidin-3-yl)-3-oxoisoindolin-5-yl)methyl (4-methyl-5-(pyrrolidin-1-yl)pyridin-2-yl) carbamate] | 100 to 1000 nM | –
4 | O=C1CCC(N2Cc3ccc(COC(=O)NC4CN(Cc5ccccc5)C4)cc3C2=O)C(=O)N1 (centres unmarked) [Compound 168] | – | 100 to 1000 nM
5 | CC(C)(C)[C@H]1C[C@@H](NC(=O)OCc2ccc3c(c2)C(=O)N(C2CCC(=O)NC2=O)C3)C1 (stereo partly drawn) [Compound 184, cis-(2-(2,6-dioxopiperidin-3-yl)-3-oxoisoindolin-5-yl)methyl ((1s,3s)-3-(tert-butyl)cyclobutyl)carbamate] | 100 to 1000 nM | –
6 | O=C1CCC(N2Cc3ccc(COC(=O)NC45CC(C(F)F)(C4)C5)cc3C2=O)C(=O)N1 (centres unmarked) [Compound 219, (2-(2,6-dioxopiperidin-3-yl)-3-oxoisoindolin-5-yl)methyl (3-(difluoromethyl)bicyclo[1.1.1]pentan-1-yl) carbamate] | < 100 nM | –
7 | C[C@@H]1CCCN1c1ccc(NC(=O)OCc2ccc3c(c2)C(=O)N(C2CCC(=O)NC2=O)C3)nc1 (some centres unmarked) [Compound 192] | – | < 100 nM
8 | O=C1CCC(N2Cc3ccc(COC(=O)NC4CN(c5ccccc5)C4)cc3C2=O)C(=O)N1 (centres unmarked) [Compound 167] | – | < 100 nM
9 | Cc1cc(NC(=O)OCc2ccc3c(c2)C(=O)N(C2CCC(=O)NC2=O)C3)cc(Cl)c1C#N (centres unmarked) [Compound 177, (2-(2,6-dioxopiperidin-3-yl)-3-oxoisoindolin-5-yl)methyl(3-chloro-4-cyano-5-methylphenyl)carbamate] | – | 100 to 1000 nM
10 | O=C1CCC(N2Cc3ccc(COC(=O)Nc4ccc(C(O)C(F)(F)F)cc4)cc3C2=O)C(=O)N1 (centres unmarked) [Compound 209, (2-(2,6-dioxopiperidin-3-yl)-3-oxoisoindolin-5-yl)methyl (4-(2,2,2-trifluoro-1-hydroxyethyl)phenyl) carbamate] | 100 to 1000 nM | –
11 | CC(C)(C)Oc1ccc(F)c(NC(=O)OCc2ccc3c(c2)C(=O)N(C2CCC(=O)NC2=O)C3)c1 (centres unmarked) [Compound 222, (2-(2,6-dioxopiperidin-3-yl)-3-oxoisoindolin-5-yl)methyl (5-(tert-butoxy)-2-fluorophenyl)carbamate] | 100 to 1000 nM | –
12 | CC1(c2ccc(NC(=O)OCc3ccc4c(c3)C(=O)N(C3CCC(=O)NC3=O)C4)cc2Cl)COC1 (centres unmarked) [Compound 236, (2-(2,6-dioxopiperidin-3-yl)-3-oxoisoindolin-5-yl)methyl (3-chloro-4-(3-methyloxetan-3-yl)phenyl)carbamate] | < 100 nM | –
13 | CCc1cccc(NC(=O)OCc2ccc3c(c2)C(=O)N(C2CCC(=O)NC2=O)C3)c1 (centres unmarked) [Compound 220, (2-(2,6-dioxopiperidin-3-yl)-3-oxoisoindolin-5-yl)methyl (3-ethylphenyl)carbamate] | 100 to 1000 nM | –
14 | Cc1cc(F)c(NC(=O)OCc2ccc3c(c2)C(=O)N(C2CCC(=O)NC2=O)C3)cc1C(F)(F)F (centres unmarked) [Compound 233] | – | 100 to 1000 nM
15 | CC(F)(F)c1ccc(F)c(NC(=O)OCc2ccc3c(c2)C(=O)N(C2CCC(=O)NC2=O)C3)c1 (centres unmarked) [Compound 234] | – | < 100 nM
16 | Cc1cc2c(c(NC(=O)OCc3ccc4c(c3)C(=O)N(C3CCC(=O)NC3=O)C4)c1)OCC2 (centres unmarked) [Compound 182] | – | 100 to 1000 nM
17 | O=C1CCC(N2Cc3ccc(COC(=O)Nc4cc(OC(F)F)c(F)cn4)cc3C2=O)C(=O)N1 (centres unmarked) [Compound 227, (2-(2,6-dioxopiperidin-3-yl)-3-oxoisoindolin-5-yl)methyl (4-(difluoromethoxy)-5-fluoropyridin-2-yl)carbamate] | 100 to 1000 nM | –

Now from value to molecule, other results behind:

Row | IC50 [1] | SMILES | IC50
18 | 100 to 1000 nM | O=C1CCC(N2Cc3ccc(COC(=O)Nc4cc(Cl)ccc4F)cc3C2=O)C(=O)N1 (centres unmarked) [Compound 163, (2-(2,6-dioxopiperidin-3-yl)-3-oxoisoindolin-5-yl)methyl (5-chloro-2-fluorophenyl)carbamate] | –
19 | 100 to 1000 nM | O=C1CCC(N2Cc3ccc(COC(=O)Nc4ccc(C5CCC5)cc4F)cc3C2=O)C(=O)N1 (centres unmarked) [Compound 164, (2-(2,6-dioxopiperidin-3-yl)-3-oxoisoindolin-5-yl)methyl (4-cyclobutyl-2-fluorophenyl)carbamate] | –
20 | 100 to 1000 nM | O=C1CCC(N2Cc3ccc(COC(=O)Nc4ccc(F)c(OC(F)F)c4F)cc3C2=O)C(=O)N1 (centres unmarked) [Compound 191, (2-(2,6-dioxopiperidin-3-yl)-3-oxoisoindolin-5-yl)methyl (3-(difluoromethoxy)-2,4-difluorophenyl) carbamate] | –
21 | < 100 nM | CC(C)Oc1ccc(F)c(NC(=O)OCc2ccc3c(c2)C(=O)N(C2CCC(=O)NC2=O)C3)c1 (centres unmarked) [Compound 221, (2-(2,6-dioxopiperidin-3-yl)-3-oxoisoindolin-5-yl)methyl (2-fluoro-5-isopropoxyphenyl)carbamate] | –
22 | < 100 nM | Cc1cc(F)c(NC(=O)OCc2ccc3c(c2)C(=O)N(C2CCC(=O)NC2=O)C3)cc1F (centres unmarked) [Compound 213, (2-(2,6-dioxopiperidin-3-yl)-3-oxoisoindolin-5-yl)methyl (2,5-difluoro-4-methylphenyl)carbamate] | –
23 | 100 to 1000 nM | Cc1ccc(NC(=O)OCc2ccc3c(c2)C(=O)N(C2CCC(=O)NC2=O)C3)c(F)c1Cl (centres unmarked) [Compound 179, (2-(2,6-dioxopiperidin-3-yl)-3-oxoisoindolin-5-yl) methyl (3-chloro-2-fluoro-4-methylphenyl)carbamate] | –
24 | < 100 nM | Cc1cc(F)c(NC(=O)OCc2ccc3c(c2)C(=O)N(C2CCC(=O)NC2=O)C3)cc1OC(C)C (centres unmarked) [Compound 230, (2-(2,6-dioxopiperidin-3-yl)-3-oxoisoindolin-5-yl)methyl (2-fluoro-5-isopropoxy-4-methylphenyl)carbamate] | –
25 | < 100 nM | Cc1cc(F)c(NC(=O)OCc2ccc3c(c2)C(=O)N(C2CCC(=O)NC2=O)C3)c(F)c1Cl (centres unmarked) [Compound 211, (2-(2,6-dioxopiperidin-3-yl)-3-oxoisoindolin-5-yl)methyl (3-chloro-2,6-difluoro-4-methylphenyl)carbamate] | –
26 | < 100 nM | Cc1cc(F)c(NC(=O)OCc2ccc3c(c2)C(=O)N(C2CCC(=O)NC2=O)C3)c(F)c1 (centres unmarked) [Compound 166, (2-(2,6-dioxopiperidin-3-yl)-3-oxoisoindolin-5-yl)methyl (2,6-difluoro-4-methylphenyl)carbamate] | –
27 | 100 to 1000 nM | Cc1ccc(NC(=O)OCc2ccc3c(c2)C(=O)N(C2CCC(=O)NC2=O)C3)nc1Cl (centres unmarked) [Compound 183, (2-(2,6-dioxopiperidin-3-yl)-3-oxoisoindolin-5-yl)methyl (6-chloro-5-methylpyridin-2-yl)carbamate] | –
28 | 100 to 1000 nM | CC1(c2ccc(NC(=O)OCc3ccc4c(c3)C(=O)N(C3CCC(=O)NC3=O)C4)cc2F)COC1 (centres unmarked) [Compound 240, (2-(2,6-dioxopiperidin-3-yl)-3-oxoisoindolin-5-yl)methyl (3-fluoro-4-(3-methyloxetan-3-yl)phenyl)carbamate] | –
29 | 100 to 1000 nM | CCCOc1ccc(F)c(NC(=O)OCc2ccc3c(c2)C(=O)N(C2CCC(=O)NC2=O)C3)c1 (centres unmarked) [Compound 226, (2-(2,6-dioxopiperidin-3-yl)-3-oxoisoindolin-5-yl)methyl (2-fluoro-5-propoxyphenyl)carbamate] | –

— US20230348418A1, “ISOINDOLINONE COMPOUNDS” (Monte Rosa Therapeutics, Inc., priority 2021, published 2023)
